# According to patent publication US9161946B2, “Dosing methods for treating disease” (Anadys Pharmaceuticals, Inc., priority 2007, dated 2015):
# Key:
# Format in all cases: in vivo, cynomolgus macaques
# neopterin = assay: Neopterin level in plasma, ELISA; details: QD schedule, 7 consecutive days, FIG. 1C (100 mg/kg)
# Experimental: (§1) The pharmacodynamic response of a continuous daily dosing schedule (QD) was compared to a cyclic dosing schedule of every-other-day (QOD) and a cyclic dosing schedule of 3 consecutive days of dosing followed by 4 consecutive days of resting (‘3 on 4 off’). All three dosing schedules were conducted with orally administered Compound I Tosylate. Immune parameters measured include cytokine and chemokine secretion in plasma measured by multiplexed immunoassay, neopterin levels in plasma measured by Enzyme Linked Immunosorbant Assay (ELISA), and cytotoxic T cell (CD8 T) effector proliferative state and B cell proliferative state in peripheral blood leukocytes as measured by flow cytometry analysis of Ki67 levels.
# (§2) Cynomolgus macaques were given either 30 mg/kg or 100 mg/kg of Compound I as the tosylate or 2 mg/kg 852A for 7 consecutive days of QD dosing followed by 7 days of additional monitoring. The immune response was determined by measuring cytokine and neopterin levels in plasma, as well as B cell and T cell responses in peripheral blood.
# [1] = tested on: cytotoxic T cell (CD8 T) in peripheral blood leukocytes; assay: Cytotoxic T cell (CD8 T) effector proliferative state, flow cytometry of Ki67; details: 3 on 4 off schedule, FIG. 3B (100 mg/kg)
# Experimental: as §1
# as §2, with “according to a dosing schedule of 3” for “or 2 mg/kg 852A for 7”, “of” for “of QD”, “4 consecutive” for “7”, “resting (‘3 on 4 off’) over 3 or 8 weeks.” for “additional monitoring.”
# IFN-α = IFN-α level in plasma after oral dosing, multiplexed immunoassay; details: for Mean Concentration of IFN-α: oral; for IFN-α levels on the third day of the cycle: 3 on 4 off, 100 mg/kg, average±SEM, n=4
# Experimental: as §1
# Cynomolgus macaques were given 10, 30, 100 or 300 mg/kg (Compound I equivalents) of Compound I Tosylate according to an every-other-day dosing schedule for 14 days, 28 days, or 13 weeks followed by recovery periods of various lengths. The immune response was determined by measuring cytokine and neopterin levels in plasma, as well as B cell and T cell responses in peripheral blood.
# as §2, with “according to a dosing schedule of 3” for “or 2 mg/kg 852A for 7”, “of” for “of QD”, “4 consecutive” for “7”, “resting (‘3 on 4 off’) over 3 or 8 weeks.” for “additional monitoring.”
# as §2
# [2] = tested on: B cell in peripheral blood leukocytes; assay: B cell proliferative state, flow cytometry of Ki67; details: 3 on 4 off schedule, repeated courses, FIG. 4B (100 mg/kg)
# Experimental: as §1
# as §2, with “according to a dosing schedule of 3” for “or 2 mg/kg 852A for 7”, “of” for “of QD”, “4 consecutive” for “7”, “resting (‘3 on 4 off’) over 3 or 8 weeks.” for “additional monitoring.”
# TNF-α = TNF-α in plasma after 3rd dose, multiplexed immunoassay; details: after 3rd dose of 100 mg/kg, QD (D3) versus QOD (D5)
# Excerpt: (§3) Each point indicates an individual animal. Fine lines indicate geometric mean. * indicates significant difference (p<0.05) between pre-treatment and post-dose values; ns: not significant. Non-responders are defined as animals with baseline interferon-α values after both the 1st and 2nd doses. Three such animals were excluded in the QOD group (n=7 final). No animals were excluded from the QD group (n=20 final).
# as §1, with “All three dosing schedules were conducted with orally administered Compound I Tosylate.” left out, “levels. […]” for “levels.”
# as §2
# IL-6 = IL-6 in plasma after 3rd dose, multiplexed immunoassay; details: after 3rd dose of 100 mg/kg
# Excerpt: as §3
# as §1, with “All three dosing schedules were conducted with orally administered Compound I Tosylate.” left out, “levels. […]” for “levels.”
# as §2
# IL-12 = IL-12 in plasma after 3rd dose, multiplexed immunoassay; details: after 3rd dose of 100 mg/kg, pre-treatment subtracted, p<0.05
# Excerpt: as §3
# as §1, with “All three dosing schedules were conducted with orally administered Compound I Tosylate.” left out, “levels. […]” for “levels.”
# as §2
# MCP-1 = MCP-1 in plasma after 3rd dose, multiplexed immunoassay; details: after 3rd dose of 100 mg/kg, pre-treatment subtracted, p<0.05
# Excerpt: as §3
# as §1, with “All three dosing schedules were conducted with orally administered Compound I Tosylate.” left out, “levels. […]” for “levels.”
# as §2
# [3] = QD schedule, 100 mg/kg per dose, p<0.05
compound,measurement,setting,value
CC(=O)O[C@@H]1C[C@@H](CO)O[C@H]1n1c(=O)sc2cnc(N)nc21.Cc1ccc(S(=O)(=O)O)cc1 [Compound I Tosylate],Time of peak neopterin level before decline,neopterin,3-4 days of dosing
same,T cell responses over repeated courses,[1],either maintained or enhanced
same,IFN-α level at day 7 for QOD higher than on day 7 for QD,"IFN-α; 100 mg/kg per dose, p<0.05",15.8 fold
same,IFN-α levels in plasma after 6 doses,"IFN-α; 3 on 4 off schedule, day 3 in the second cycle, 100 mg/kg (Compound I equivalents)",3832±1329
same,IFN-α response on day 7 lower than response on day 1,"IFN-α; QD schedule, 100 mg/kg per dose",3.3 fold
same,IFN-α levels on day 5 compared to day 3,IFN-α; [3],significantly reduced
same,IFN-α levels on day 7 compared to day 3,IFN-α; [3],significantly reduced
same,Time of peak IFN-α level before decline,"IFN-α; QD schedule, 7 consecutive days, FIG. 1C (100 mg/kg)",3-4 days of dosing
same,IFN-α levels in plasma after 6 doses,"IFN-α; QD schedule, Day 6, 100 mg/kg (Compound I equivalents)",922±739
same,B cell proliferative state as measured by Ki67 levels,[2],enhanced
"CC(=O)O[C@@H]1C[C@@H](CO)O[C@H]1n1c(=O)sc2cnc(N)nc21 [Compound I, 5-amino-3-(2′-O-acetyl-3′-deoxy-beta-D-ribofuranosyl)-3H-thiazolo[4,5-d]pyrimidin-2-one]",TNF-α induction versus pre-treatment,TNF-α,"significantly induced (p<0.05) by the QD, but not by the QOD schedule"
same,IL-6 induction versus pre-treatment,IL-6; QD (D3) versus QOD (D5),"significantly induced (p<0.05) by the QD, but not by the QOD schedule"
same,"Level of IL-6 expressed relative to IFN-α, QD compared to QOD","IL-6; pre-treatment subtracted, p<0.05",significantly higher
same,"Level of IL-12 expressed relative to IFN-α, QD compared to QOD",IL-12,significantly higher
same,Mean Concentration of IFN-α,"IFN-α; 3 on 4 off schedule, Day 1, 100 mg/kg per dose as tosylate salt, 3 hours after dosing, mean ± SEM, pre-treatment subtracted",175 ± 69 pg/mL
same,Mean Concentration of IFN-α,"IFN-α; 3 on 4 off schedule, Day 3, 100 mg/kg per dose as tosylate salt, 3 hours after dosing, mean ± SEM, pre-treatment subtracted",4192 ± 768 pg/mL
same,Mean Concentration of IFN-α,"IFN-α; 3 on 4 off schedule, Day 5 (resting day, no dose), 100 mg/kg per dose as tosylate salt",Baseline*
same,Mean Concentration of IFN-α,"IFN-α; 3 on 4 off schedule, Day 7 (resting day, no dose), 100 mg/kg per dose as tosylate salt",Baseline*
same,IFN-α levels on the third day of the cycle,IFN-α; first cycle,4192±768
same,IFN-α levels on the third day of the cycle,IFN-α; second cycle,3832±1329
same,IFN-α levels on the third day of the cycle,IFN-α; third cycle,3879±1140
same,Mean Concentration of IFN-α,"IFN-α; QD schedule, Day 1, 100 mg/kg per dose as tosylate salt, 3 hours after dosing, mean ± SEM, pre-treatment subtracted",498 ± 252 pg/mL
same,Mean Concentration of IFN-α,"IFN-α; QD schedule, Day 3, 100 mg/kg per dose as tosylate salt, 3 hours after dosing, mean ± SEM, pre-treatment subtracted",8057 ± 1566 pg/mL
same,Mean Concentration of IFN-α,"IFN-α; QD schedule, Day 5, 100 mg/kg per dose as tosylate salt, 3 hours after dosing, mean ± SEM, pre-treatment subtracted",2166 ± 615 pg/mL
same,Mean Concentration of IFN-α,"IFN-α; QD schedule, Day 7, 100 mg/kg per dose as tosylate salt, 3 hours after dosing, mean ± SEM, pre-treatment subtracted",151 ± 105 pg/mL
same,Mean Concentration of IFN-α,"IFN-α; QOD schedule, Day 1, 100 mg/kg per dose as tosylate salt, 3 hours after dosing, mean ± SEM, pre-treatment subtracted",1293 ± 513 pg/mL
same,Mean Concentration of IFN-α,"IFN-α; QOD schedule, Day 3, 100 mg/kg per dose as tosylate salt, 3 hours after dosing, mean ± SEM, pre-treatment subtracted",1459 ± 634 pg/mL
same,Mean Concentration of IFN-α,"IFN-α; QOD schedule, Day 5, 100 mg/kg per dose as tosylate salt, 3 hours after dosing, mean ± SEM, pre-treatment subtracted",1816 ± 1012 pg/mL
same,Mean Concentration of IFN-α,"IFN-α; QOD schedule, Day 7, 100 mg/kg per dose as tosylate salt, 3 hours after dosing, mean ± SEM, pre-treatment subtracted",2375 ± 982 pg/mL
same,"Level of MCP-1 expressed relative to IFN-α, QD compared to QOD",MCP-1,significantly higher
